In ChEMBL document CHEMBL1149044, “Anthraquinones and a 10-Hydroxyanthrone from Phialophora alba” (1994):

Test system: Phellinus tremulae
Experiment: Antifungal activity against Phellinus tremulae at 1 mg/mL
Format: functional

Structure (SMILES): COc1cc(C)cc2c1C(=O)c1c(O)cc(O)c(Cl)c1C2O (configuration not stated)
- inhibition at 1000 µg/mL: 50%

Structure (SMILES): COc1cc(C)cc2c1C(=O)c1c(O)cc(O)cc1C2=O [1-O-METHYLEMODIN]
- inhibition at 1000 µg/mL: 50%
